The record followed here is US9284543B2, “Neutral active soluble truncated PH20 polypeptides and uses thereof” (Halozyme, Inc., priority 2008, dated 2016).

The subject of experiment [1] is HZ24-2B2 cells expressing rHuPH20. Description: Treatment of rHuPH20-expressing cells with glycosylation inhibitors. Format: cell-based, Chinese Hamster. Particulars: for PH20 activity: With Kifunensine; for Viable Cells: With Kifunensine 5 μg/mL. On the procedure: Briefly, 1×10^6 HZ24-2B2 cells expressing rHuPH20 (see Example 14 below) were seeded in 24 mL complete CD-CHO medium in two 125 mL flasks. Tunicamycin (dissolved in DMSO) or Kifunensine (freshly dissolved in water) was added to a final concentration of 5 μg/mL (containing 12 μL DMSO). As a control, one flask was seeded with 1×10^6 HZ24-2B2 cells expressing rHuPH20 and 12 μL DMSO was added as a vehicle control. Following addition of either tunicamycin or kifunensine, the cells were incubated for 4-6 hours at 37° C. with 5% CO2. Following expression, a 2 mL culture was removed and centrifuged for 5 minutes at 500 g. The supernatant was stored at 4° C. and the cell pellets were stored at −20° C. The remaining 22 mL cultures were centrifuged for 5 minutes at 500 g. The supernatant was stored at 4° C. The cells were resuspended in 22 mL complete CD-CHO medium in the original two 125 mL flasks. Tunicamycin or Kifunensine was added to the culture at a final concentration of 5 μg/mL and the cells were incubated at 37° C. with 5% CO2. Two mL (2 mL) cultures were removed from each flask at approximately every 24 hours post changing medium. For each time point, the supernatant was stored at 4° C. and the cell pellets were stored at −20° C. The expression of rHuPH20 was analyzed by Western blot analysis and the hyaluronidase activity was measured using the biotinylated HA enzymatic assay (as described in Examples 3 and 5 above).

Experiment [2] can be described thus: Microtiter hyaluronidase activity assay with biotinylated-hyaluronic acid. In kind it is biochemical. Particulars: Table 6, 72 hour post transfection supernatant. On the procedure:
In Example 4, the hyaluronidase activity of truncated human PH20 hyaluronidase is determined using biotinylated hyaluronic acid. The free carboxyl groups on the glucuronic acid residues of hyaluronic acid are biotinylated, and the biotinylated hyaluronic acid substrate is covalently coupled to a microtiter plate. Following incubation with hyaluronidase, the residual biotinylated hyaluronic acid substrate is detected using an avidin-peroxidase reaction, and compared to that obtained following reaction with hyaluronidase standards of known activity. […] The sensitivity permits rapid measurement of hyaluronidase activity from cultured cells and biological samples with an inter-assay variation of less than 10%.
In this example, the human PH20 hyaluronidase carboxy-terminus deletion mutants were tested for their PH20 hyaluronidase activity using a microtiter assay with biotinylated-hyaluronic acid (biotinylated-HA or bHA). The human PH20 hyaluronidase carboxy-terminus deletion mutants were tested for hyaluronidase activity at both pH 7.4 and pH 5.5.
In short, a 4×BH 96-well plate was coated with biotinylated-HA (1.1 MDa). The 72 hour post transfection supernatant from cells transfected with human PH20 hyaluronidase carboxy-terminus deletion mutants was diluted in buffer at either pH 7.4 or pH 5.5 and added to individual wells of the plate and allowed to incubate at 37° C. for 90 minutes. The reaction was terminated by addition of 4M guanidine HCl. The wells were washed 4× with Phosphate Buffered Saline with Tween20 (PBST) to remove any digested biotinylated-HA followed by addition of streptavidin-HRP for 1 hour at room temperature. The wells were washed 4× with PBST and the plate was developed with TMB. The plate was read at 450 nm using an ELISA plate reader. Hyaluronidase activity (in Units/mL) was determined by interpolating the measured absorbance at 450 nm with a hyaluronidase reference standard curve. Full length mature human PH20 hyaluronidase and untransfected CHO cells were used as positive and negative controls.

Take `O=C1N[C@@H]2[C@@H](O)[C@@H](O)[C@H](O)[C@@H](CO)N2C1=O` [Kifunensine]: the PH20 activity in experiment [1] (Cell Pellets, 0 hours) was found to be 22.25 U/mL; in experiment [1] (Cell Pellets, 6 hours) it was 21.25 U/mL; in experiment [1] (Cell Pellets, 24 hours), 27.75 U/mL; in experiment [1] (Cell Pellets, 50 hours), 43 U/mL; in experiment [1] (Cell Pellets, 72 hours), 98.75 U/mL; in experiment [1] (Cell Pellets, 96 hours), 208.75 U/mL. In addition, the PH20 activity stood at 497.25 U/mL in experiment [1] (Cell Pellets, […]); 0.4 U/mL in experiment [1] (Tissue Culture Media, 0 hours); 23.85 U/mL in experiment [1] (Tissue Culture Media, 6 hours); 129.6 U/mL in experiment [1] (Tissue Culture Media, 24 hours); 299.7 U/mL in experiment [1] (Tissue Culture Media, 50 hours); 535.95 U/mL in experiment [1] (Tissue Culture Media, 72 hours). Also, the PH20 activity was 945 U/mL in experiment [1] (Tissue Culture Media, 96 hours) and 2968.65 U/mL in experiment [1] (Tissue Culture Media, […]). The “Viable Cells” value in experiment [1] (0 hours) was 1 ×10^6; in experiment [1] (6 hours), 1 ×10^6; in experiment [1] (24 hours), 1.2 ×10^6; in experiment [1] (50 hours) it was 2.1 ×10^6; in experiment [1] (72 hours), 3 ×10^6; in experiment [1] (96 hours) it was 3.7 ×10^6. In addition, the “Viable Cells” value in experiment [1] ([…]) is on record as 5.8 ×10^6. The “Effect on PH20 activity (in words)” value in experiment [1] (tissue culture media and inside the cell, 5 μg/mL) is reported as “did not affect the activity of PH20”. Further, the “Effect on expression and secretion of rHuPH20” value in experiment [1] (western blot analysis, 5 μg/mL) is “inhibited the expression and secretion of rHuPH20”.

B1: VASL + PLC: full length human PH20 (SEQ ID NO: 108) with PLC treatment (protein, listed as Homo sapiens)
chain: LNFRAPPVIPNVPFLWAWNAPSEFCLGKFDEPLDMSLFSFIGSPRINATGQGVTIFYVDRLGYYPYIDSITGVTVNGGIPQKISLQDHLDKAKKDITFYMPVDNLGMAVIDWEEWRPTWARNWKPKDVYKNRSIELVQQQNVQLSLTEATEKAKQEFEKAGKDFLVETIKLGKLLRPNHLWGYYLFPDCYNHHYKKPGYNGSCFNVEIKRNDDLSWLWNESTALYPSIYLNTQQSPVAATLYVRNRVREAIRVSKIPDAKSPLPVFAYTRIVFTDQVLKFLSQDELVYTFGETVALGASGIVIWGTLSIMRSMKSCLLLDNYMETILNPYIINVTLAAKMCSQVLCQEQGVCIRKNWNSSDYLHLNPDNFAIQLEKGGKFTVRGKPTLEDLEQFSEKFYCSCYSTLSCKEKADVKDTDAVDVCIADGVCIDAFLKPPMETEEPQIFYNASPSTLSATMFIVSILFLIISSVASL
modifications: PLC treatment; Mature Human PH20 36-509
With B1, in experiment [2] (pH 5.5), the “pH 5.5 Activity” value was determined as 2.313 Units/ml. In experiment [2] (pH 7.4), the “pH 7.4 Activity” value was 3.96 Units/ml.
